No end group written: not given here. mPEG 5000 = methoxy-PEG, average 5000 Da, coupled via mPEG-NHS

Test [1] concerns porcine spleen biopsy punch model. The test can be described thus: porcine spleen biopsy punch model, time to hemostasis. Type of test: in vivo. The conditions noted are these: for hemostatic efficacy (time to hemostasis): pegylated (PEG2000) 8 amino acid peptides in mixture with Surgiflo, FIG. 5; for hemostatic performance vs Surgiflo with normal saline: ORC powder scaffold, FIG. 5, N=4; for time to hemostasis vs thrombin: FIG. 2, N=3; for time to hemostasis vs Surgiflo with saline and with PEG2000 (5 mM): FIG. 3, N=3; for hemostatic efficacy vs Surgiflo with thrombin: 0.05-5 mM. On the procedure: The data was collected using in vivo porcine spleen biopsy punch model [6 mm wide×3 mm deep], initial tamponade time: 30 s; observation time: 30 s; N=3.
In vivo hemostatic activity study was performed using the porcine spleen biopsy punch model, with the punched wound opening 6 mm wide×3 mm deep made on the spleen and the test article applied to a freshly created wound site followed by an occlusive digital pressure (tamponade). Pressure was initially applied for 30 second and was timed using an electronic timer. Following the 30 seconds tamponade, digital pressure was discontinued; the gauze pad on the article was immediately removed. A 30-second hemostasis evaluation period was performed. If free flow bleeding was not observed within 30 seconds, the time to hemostasis was noted, in a minutes seconds format, and testing was concluded for that article. If free flow bleeding was observed, pressure and gauze were reapplied for additional 30 seconds tamponade and observation periods until hemostasis was achieved or until the testing period reached ten minutes. Hemostasis was determined by the cessation of free flow bleeding in less than ten minutes. Gauze pad was used as a negative control.
The data was collected using porcine spleen biopsy punch model [6 mm wide×3 mm deep], initial tamponade time: 30 s; observation time: 30 s; N=3.
The data was collected using porcine spleen biopsy punch model [6 mm wide×3 mm […]], initial tamponade time: 30 s; observation time: 30 s; N=3.
The inventors have tested the following ORC-based compositions: • mixtures of ORC with pegylated SEQ ID NO: 1 at 5 mM concentration (designated on the chart as ORC/PEG2000-RK-8) • mixtures of ORC with SEQ ID NO: 1 at 5 mM concentration (designated on the chart as ORC/RK-8) • mixtures of ORC with normal saline The data was collected using porcine spleen biopsy punch model [6 mm wide×3 mm […]], initial tamponade time: 30 s; observation time: 30 s; N=4.
The data was collected using porcine spleen biopsy punch model [6 mm wide×3 mm deep], initial tamponade time: 30 s; observation time: 30 s.

A further test deals with fresh porcine blood. Put plainly: bench top test: treated Monocryl pad with fresh porcine blood. Particulars: 100 μL of 0.5 mM on 0.025 g Monocryl pad, 150 μL fresh porcine blood, 2 minutes, room temperature. On the procedure: In a bench top experiment, a synthetic porous pad was treated with pegylated SEQ ID NO: 1 in saline solution or with control solution of saline to evaluate interaction with blood. Samples were prepared by adding 100 μL of pegylated SEQ ID NO: 1 in normal saline solution (0.5 mM) or 200 μL of normal saline solution to 0.025 g Monocryl (poliglecaprone 25) pad. The impregnated Monocryl* (poliglecaprone 25) pads were then air-dried for 2 hrs following by an 1-hr vacuum drying process.
150 μL of fresh porcine blood was then added to each pad separately, and allowed it sit at room temperature for 2 minutes. The pads were then transferred to a Petri dish containing 20 mL of saline solution, observing non-coagulated blood diffusing out from the pads. […] Thus the pegylated SEQ ID NO: 1 was shown as promoting rapid blood coagulation.

The test system of test [2] is porcine blood containing sodium citrate. The test can be described thus: bench top test: solution added to citrated porcine blood in glass vials. Particulars: 100 μL of 0.5 mM solution added to 100 μL citrated porcine blood; for precipitation of blood: after 2 hrs. On the procedure: In a bench top experiment, pegylated SEQ ID NO: 1 in normal saline solution, non-pegylated SEQ ID NO: 1 in normal saline solution, and control solution of normal saline were tested to evaluate interaction with blood. Samples were prepared by adding 100 μL of pegylated SEQ ID NO: 1 in normal saline solution (0.5 mM), SEQ ID NO: 1 in normal saline solution (0.5 mM), and normal saline to separate glass vials containing 100 μL of porcine blood containing sodium citrate (0.105M). […] Thus the pegylated SEQ ID NO: 1 and non-pegylated SEQ ID NO: 1 was shown as promoting rapid blood coagulation.

Test [3] has as its system clopidogrel and acetylsalicylic acid treated porcine spleen biopsy punch model. Put plainly: clopidogrel and acetylsalicylic acid treated porcine spleen biopsy punch model (platelet inactivated). Particulars: mixture with Surgiflo, 0.5 mM PEG2000-RK8 in saline, FIG. 8. The format is in vivo. On the procedure: The data was collected using a clopidogrel and acetylsalicylic acid treated porcine spleen biopsy punch model (6 mm wide×3 mm deep, tamponade time: 30 sec; observation time: 30 sec; the following oral dosages were applied to a 4-month-old female porcine (weight: 66.1 Kg): • 2 days prior to the lab: 300 mg of Plavix and 325 mg of aspirin. • 1 day prior to the lab: 75 mg of Plavix and 325 mg of aspirin. • The day for the lab: 75 mg of Plavix and 325 mg of aspirin before the surgery.

Test [4] deals with Heparinized Porcine spleen biopsy punch model. The test can be described thus: Heparinized porcine spleen biopsy punch model, time to hemostasis. The conditions noted are these: mixture with Surgiflo; for hemostatic effect in heparinized blood: 2 mL of 5 mM in saline (thrombin: EVITHROM), ACT above 300 seconds. Type of test: in vivo. The source says: The model was Heparinized Porcine spleen biopsy punch model: 6 mm wide×3 mm deep, tamponade time: 30 sec; observation time: 30 sec; activated clotting time (ACT) was maintained above 300 seconds by infusing additional 2000 IU heparin solution if needed. 9975 IU of heparin solution was initially applied to a 39.1 Kg porcine.

Another test concerns washed human platelets. The conditions noted are these: washed human platelets from different donors; cited from earlier work.
The mark [5] stands for this setting: mixture with Surgiflo, 5 mM, FIG. 6.
[6] abbreviates: mixture with Surgiflo, FIG. 4, N=3.

Regarding “SEQ ID NO: 21: PEG2000-conjugated random sequence 8 amino acid peptide KVYRWFMV (PEG2000-KVYRWFMV) [reference compound]”, the “hemostatic efficacy (time to hemostasis)” value in test [1] (5 mM) is given as “longer time to hemostasis, comparable to SF/saline mixture”.
On the same count and under the same terms, the value for “SEQ ID NO: 7: PEG2000-conjugated peptide KYFLLQFR (Lys-Tyr-Phe-Leu-Leu-Gln-Phe-Arg) (PEG2000-KYFLLQFR)” was “somewhat longer time to hemostasis, comparable to non-pegylated SEQ ID NO: 1”.
Turning to “pegylated SEQ ID NO: 1: SEQ ID NO: 1 with mPEG (average 2000 Da) conjugated onto the N-terminus via mPEG-NHS ({mPEG 2000 Da}-RFYVVMWK)”, in the test with fresh porcine blood, the “coagulated blood trapped in treated pad” value was “significant amount of coagulated blood”. In addition, the “hemostatic performance vs Surgiflo with normal saline” value in test [1] (5 mM) is reported as “not suitable”. The hemostatic testing entry in test [1] (Pluronic acid F127 scaffold, 5 mM, FIG. 6) is recorded as “failed in hemostatic testing”. Moreover, the “time to hemostasis vs thrombin” value is on record as “comparable to thrombin” in test [1] (mixture with Surgiflo, 0.05 mM to 5 mM) and “possibly better time to hemostasis than Thrombin” in test [1] (mixture with Surgiflo, 0.1 mM). The time to hemostasis result in test [1] (mixture with Surgiflo, 0.05 mM, FIG. 4, N=3) was “particularly fast time to hemostasis”; in test [4] (2 mL of 5 mM in saline, heparinized blood, FIG. 7), 6.8 min. Moreover, in test [1] (mixture with Surgiflo, 5 mM), the “time to hemostasis vs Surgiflo with saline and with PEG2000 (5 mM)” value is reported as “much faster time to hemostasis”. Besides, the “effectiveness as hemostatic agent (time to hemostasis)” value in test [1] (setting [5]) is “performed as well as thrombin”. Moreover, the “hemostatic efficacy vs Surgiflo with thrombin” value in test [1] (setting [6]) was “better or similar hemostatic efficacy”. The “hemostatic efficacy vs SEQ ID NO: 1 and Thrombin” value in test [1] (mixtures with Surgiflo, FIG. 4, further analysis) was “better hemostatic efficacy than SEQ ID NO: 1 and Thrombin”. Further, the clouding of blood entry in test [2] is listed as “instantly observed”. Moreover, the precipitation of blood entry in test [2] is given as “complete precipitation of blood”. Also, in test [3], the “hemostatic efficacy vs Surgiflo/Thrombin” value is reported as “working as well as Surgiflo/Thrombin”. In addition, the “hemostatic effect in heparinized blood” value in test [4] (FIG. 7) is “some hemostatic effect”.
As to “Arg-Phe-Tyr-Val-Val-Met-Trp-Lys (RFYVVMWK) [SEQ ID NO: 1]”, the “hemostatic performance vs Surgiflo with normal saline” value in test [1] (5 mM) is “not suitable”. Besides, the “time to hemostasis vs Surgiflo with saline and with PEG2000 (5 mM)” value in test [1] (mixture with Surgiflo, 5 mM) is on record as “much faster time to hemostasis”. The “effectiveness as hemostatic agent (time to hemostasis)” value in test [1] (setting [5]) is reported as “performed as well as thrombin”. Besides, the “hemostatic efficacy vs Surgiflo with thrombin” value in test [1] (setting [6]) is on record as “hemostatic efficacy comparable to mixtures of Surgiflo™ with thrombin”. Further, in test [2], the clouding of blood entry was “instantly observed” and the precipitation of blood entry is given as “complete precipitation of blood”. For the same substance, the “concentrations that induce activation and aggregation of platelets” value with washed human platelets is 5 to 25 mM. Besides, the “hemostatic effect in heparinized blood” value in test [4] (FIG. 7) is recorded as “failed as hemostat in heparinized blood”.
Take thrombin: in test [4] (FIG. 7), the “hemostatic effect in heparinized blood” value is recorded as “failed as hemostat in heparinized blood”.
For “PEG5000-SEQ ID NO: 1: SEQ ID NO: 1 with mPEG 5000 conjugated onto the N-terminus via mPEG-NHS ({mPEG 5000}-RFYVVMWK)”, the “hemostatic efficacy vs thrombin, non-pegylated SEQ ID NO: 1 and other controls” value in test [4] (heparinized blood, 5 mM) is given as “superior hemostatic efficacy”. Moreover, the “hemostatic effect in heparinized blood” value in test [4] (FIG. 7) is reported as “significant hemostatic efficacy”.

The record behind these values is patent US9717820B2, “Procoagulant peptides and their derivatives and uses therefor” (Ethicon, Inc., priority 2011, dated 2017).
